Measurements reported in PubChem BioAssay AID652214 (Broad Institute, 2013).
Calls of active or inactive are those of the source.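 The calls were made as follows: active = AC50 of 30 µM or below; inactive = AC50 above 30 µM.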

Target: Thioredoxin (Homo sapiens) (UniProt P10599)
Assay: TRX disulfide reduction blockade – biochemical, insulin turbidity, dry powder samples, counter-screen for PDI inhibitor project, dose response (AID 652214)
Details: purified thioredoxin, insulin reduction turbidity OD650

Thioredoxin (Homo sapiens), sequence (P10599 whole entry, looked up): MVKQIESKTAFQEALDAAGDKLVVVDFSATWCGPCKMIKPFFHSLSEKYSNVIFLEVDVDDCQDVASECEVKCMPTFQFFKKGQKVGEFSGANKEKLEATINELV

AC50	Structure (SMILES)
> 30 µM (inactive)	CCOC(=O)C1(CCOc2ccccc2)CCN(Cc2ccc(O)cc2)CC1
> 30 µM (inactive)	C/C1=C\C[C@H](OC(=O)c2ccc(O)cc2)/C(C)=C/[C@@H](O)C(C)(C)CCC1
> 30 µM (inactive)	CCOC(=O)C1(CCOc2ccccc2)CCN(Cc2ccc(O)c(Cl)c2)CC1
> 30 µM (inactive)	CCN(C)C(=O)C1(CCOc2ccccc2)CCN(Cc2ccc(O)c(Cl)c2)CC1

The next lines start with the compound.

Structure (SMILES)	AC50
CCOC(=O)C1(CCOc2ccccc2)CCN(C(=O)c2ccc(O)c(Cl)c2)CC1	> 30 µM (inactive)
CCOC(=O)C1(CCOc2ccccc2)CCN(Cc2ccc(OC)c(Cl)c2)CC1	> 30 µM (inactive)
C/C1=C\[C@@H](O)C(C)(C)CCCC2(C)OC2C[C@@H]1OC(=O)c1ccc(O)cc1 (some centres not stated)	3 µM
O=C(NC1CCCC1)C1(CCOc2ccccc2)CCN(Cc2ccc(O)c(Cl)c2)CC1	> 30 µM (inactive)
CC(C)(C)OC(=O)C1(CCOc2ccccc2)CCN(Cc2ccc(O)c(Cl)c2)CC1	> 30 µM (inactive)
CCOC(=O)c1c(CN2CCN(CCO)CC2)n(-c2ccccc2)c2cc(Br)c(O)cc12	> 30 µM (inactive)
O=C(Nc1ccccc1)C1(CCOc2ccccc2)CCN(Cc2ccc(O)c(Cl)c2)CC1	> 30 µM (inactive)
CC(C)OC(=O)C1(CCOc2ccccc2)CCN(Cc2ccc(O)c(Cl)c2)CC1	> 30 µM (inactive)
